Assay results published in ChEMBL document CHEMBL3102733, “The effect of chain length and unsaturation on Mtb Dxr inhibition and antitubercular killing activity of FR900098 analogs” (Bioorg Med Chem Lett, 2014).

Experiments:
[1] = tested on: Mycobacterium tuberculosis; assay: Antimycobacterial activity against Mycobacterium tuberculosis H37Rv assessed as growth inhibition in presence of 7H9 nutrient-rich media; assay type: functional
[2] = target: T1, 1-deoxy-D-xylulose 5-phosphate reductoisomerase (Mycobacterium tuberculosis) (UniProt P9WNS1); assay: Inhibition of Mycobacterium tuberculosis Dxr at 100 uM
T1 sequence (whole entry): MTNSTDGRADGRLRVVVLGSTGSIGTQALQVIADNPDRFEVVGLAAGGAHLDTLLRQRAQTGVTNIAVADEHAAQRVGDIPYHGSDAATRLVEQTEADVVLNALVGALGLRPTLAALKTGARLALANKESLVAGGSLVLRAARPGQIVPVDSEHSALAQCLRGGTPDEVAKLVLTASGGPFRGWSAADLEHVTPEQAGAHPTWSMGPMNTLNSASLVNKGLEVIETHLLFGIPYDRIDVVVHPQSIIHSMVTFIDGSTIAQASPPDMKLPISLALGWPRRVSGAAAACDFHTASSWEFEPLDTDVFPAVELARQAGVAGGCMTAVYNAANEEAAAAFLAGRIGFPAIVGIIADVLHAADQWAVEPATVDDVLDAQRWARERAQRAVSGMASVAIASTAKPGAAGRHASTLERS

[3] = tested on: Mycobacterium tuberculosis; assay: Antimycobacterial activity against Mycobacterium tuberculosis H37Rv assessed as growth inhibition in presence of GAST minimal media; assay type: functional
[4] = target: T2, 1-deoxy-D-xylulose 5-phosphate reductoisomerase (Mycobacterium tuberculosis, UniProt P9WNS1); assay: Inhibition of Mycobacterium tuberculosis Dxr
T2 sequence (P9WNS1 whole entry): T1 sequence (whole entry)

SMILES	MIC [1] [µg/mL]	inhibition [2] [%]	MIC [3] [µg/mL]	IC50 [4] [µM]
CC(=O)N(O)CCP(=O)([O-])O.[Na+]	> 200	74	150	–
CC(=O)N(O)C/C=C/P(=O)([O-])O.[Na+]	> 200	–	150	1.07
CC(=O)N(O)CCCCP(=O)([O-])O.[Na+]	> 200	80	> 200	–
CC(=O)N(O)C/C=C/P(=O)(OCOC(=O)C(C)(C)C)OCOC(=O)C(C)(C)C	9.4	–	12.5	–
CC(=O)N(O)CCCCP(=O)(OCOC(=O)C(C)(C)C)OCOC(=O)C(C)(C)C	≥ 200	–	150	–
CCOP(=O)(CCCCN(O)C(C)=O)OCC	> 200	–	75	–
CCOP(=O)(/C=C/CN(O)C(C)=O)OCC	> 200	–	150	–
CCOP(=O)(CCCCCN(O)C(C)=O)OCC	> 200	–	200	–
CCOP(=O)(CCN(O)C(C)=O)OCC	> 500	–	–	–
CC(=O)N(O)CCCCCP(=O)([O-])O.[Na+]	> 200	86	> 200	–
CC(=O)N(O)CCCP(=O)(O)O [FR-900098]	–	–	–	2.39
CCOP(=O)(CCN(O)C=O)OCC	> 500	–	–	–
